Reference: patent publication US20230226040A1, “COMBINATION THERAPY COMPRISING AN FGFR INHIBITOR AND A KRAS INHIBITOR” (Incyte Corporation, priority 2021, published 2023)
Several values for one entry are separate records, joined by “and”; a condition that tells them apart may be missing. Equal entries are not always repeated.

Experiments:
[1] = tested on: LU99 lung cancer xenograft; test: LU99 xenograft model, tumor growth inhibition; format: in vivo; conditions: NCr nude mice; AMG510 20 mg/kg, pemigatinib 0.3 mg/kg, alone or combined; oral QD, 30 days; last day of treatment
Description: The in vivo effect of combining the FGFR1 inhibitor pemigatinib plus the KRAS G12C inhibitor AMG510 was assessed in the LU99 lung cancer model (JCRB0080, JCRB) xenograft model (FIG. 3) in 6 to 8 week old female NCr nude mice (Taconic). Pemigatinib and AMG510 were suspended in 5% N,N-dimethyl acetamide (DMAC)+50 mM Citrate buffer (pH 3.0) in 0.5% methyl cellulose for oral administration. Briefly, mice were inoculated in the left flank with 1×10^7 LU99 cells re-suspended in a PBS and matrigel (Corning Life Sciences, Tewksbury, Mass) solution at 1:1. On Day 7, mice were randomized into 4 groups of 10 mice at approximate mean volume (˜212 mm^3). […] Tumor growth inhibition was calculated using the formula (1−(VT/VC))×100, where VT is the tumor volume of the treatment group on the last day of treatment, and Vc is the tumor volume of the control group on the last day of treatment. […] Statistics were determined using One-Way ANOVA.
Briefly, mice were inoculated in the left flank with 1×10^7LU99 cells re-suspended in a PBS and matrigel (Corning Life Sciences, Tewksbury, Mass) solution at 1:1. […] TGI was calculated using the formula (1−(VT/VC))×100, where VT is the tumor volume of the treatment group on the last day of treatment, and VC is the tumor volume of the control group on the last day of treatment. […]

H1792 = test: 5-day Cell Titer Glo combination matrix, Bliss score; format: cell-based; conditions: H1792 (Lung, Mesenchymal); KRAS inhibitor in combination with pemigatinib; 5 days
Description: (§2) Cells were seeded in RPMI medium with 10% HI FBS at a density of 500 cells/well in Greiner, white, clear bottom, 384-well tissue culture treated plates containing 10×10 combination matrices of compound. Plates were incubated at 37° C., 5% CO2 for 5 days. On day 5, Cell Titer Glo reagent was added to the plates and ATP luminescence was detected using a Pherastar FSX reader. The synergy score for the combination effect was calculated using a Bliss score model where the Bliss score=Yab-(Ya+Yb−(YaYb))×100, where Ya and Yb are the monotherapies. Bliss scores >20 are strongly synergistic and a higher Bliss scores indicates a higher level of synergism.
(§3) Cells were seeded in RPMI medium with 10% HI FBS at a density of 500 cells/well in Greiner, white, clear bottom, 384-well tissue culture treated plates containing 10×10 combination matrices of compound. Plates were incubated at 37° C., 5% CO2 for 5 days. On day 5, Cell Titer Glo reagent was added to the plates and ATP luminescence was detected using a Pherastar FSX reader. Synergy score for the combination effect is calculated using a Bliss score model where the Bliss score=Yab−(Ya+Yb−(YaYb))×100, where Ya and Yb are the monotherapies. Bliss scores >20 are strongly synergistic and a higher Bliss scores indicates a higher level of synergism.
(§4) Cells were seeded in RPMI medium with 10% HI FBS at a density of 500 cells/well in Greiner, white, clear bottom, 384-well tissue culture treated plates containing 10×10 combination matrices of compound. Plates were incubated at 37° C., 5% CO2 for 5 days. On day 5, Cell Titer Glo reagent was added to the plates and ATP luminescence was detected using a Pherastar FSX reader. The synergy score for the combination effect was calculated using a Bliss score model where the Bliss score=Yab−(Ya+Yb−(YaYb))×100, where Ya and Yb are the monotherapies. Bliss scores >20 are strongly synergistic and a higher Bliss scores indicates a higher level of synergism.

Calu-1 = test: as above; format: cell-based; conditions: Calu-1 (Lung, Mesenchymal); KRAS inhibitor in combination with pemigatinib; 5 days
Description: as §2

[2] = tested on: MiaPaca2 KRAS G12C resistant clone 23; test: 5-day Cell Titer Glo viability and Bliss score; format: cell-based; conditions: 5-day CTG
Description: (§1) For G12C resistant clone generation, MiaPaca2 parent cells were cultured with increasing concentrations of AMG510 (up to 1μM) over time. The viable cells were re-fed fresh media containing AMG510 weekly. Once the AMG510 resistant cells were growing at normal rates in the presence of 1μM AMG510, they were cloned by limiting dilution. Eight clones were selected for continued passage and further experiments.

[3] = tested on: MiaPaca2 KRAS G12C resistant clone 7; test: 5-day Cell Titer Glo viability and Bliss score; format: cell-based; conditions: 5-day CTG
Description: as §1

[4] = tested on: MiaPaca2 KRAS G12C resistant clone 28; test: 5-day Cell Titer Glo viability and Bliss score; format: cell-based; conditions: 5-day CTG
Description: as §1

[5] = tested on: MiaPaca2 KRAS G12C resistant clone 11; test: 5-day Cell Titer Glo viability and Bliss score; format: cell-based; conditions: CLONE 11, 5-day CTG
Description: as §1

SW-1573 = test: 5-day Cell Titer Glo combination matrix, Bliss score; format: cell-based; conditions: SW-1573 (Lung, Mesenchymal); KRAS inhibitor in combination with pemigatinib; 5 days
Description: as §2, §3, §4

SW-837 = test: as above; format: cell-based; conditions: SW-837 (CRC, Epithelial); KRAS inhibitor in combination with pemigatinib; 5 days
Description: as §2, §4

H358 = test: as above; format: cell-based; conditions: H358 (Lung, Epithelial); KRAS inhibitor in combination with pemigatinib; 5 days
Description: as §2, §3, §4

HCC-44 = test: as above; format: cell-based; conditions: HCC-44 (Lung, Mesenchymal); KRAS inhibitor in combination with pemigatinib; 5 days
Description: as §2, §4

LU99 cells = test: siRNA FGFR knockdown plus KRAS G12C inhibitor, Cell Titer Glo proliferation; format: cell-based; conditions: 120 h
Description: Knockdown efficiency was assessed by Western blot and its effect was measured by cell proliferation inhibition.
The lyophilized siRNA pools or individuals (Dharmacon ON-TARGET plus siRNA from Horizon Discovery) were reconstituted by combining 1× siRNA buffer (200 μL) with lyophilized siRNA (20 nmol); or combining 1× siRNA buffer (100 μL) with lyophilized siRNA (10 nmol). Dharmafect Reagent 1 was prepared at a 1:200 dilution in 1X siRNA buffer. One tube of diluted reagent was prepared for each siRNA dilution. To each tube, the appropriate siRNA was added to Dharmafect Reagent 1 at a 1:400 dilution. The prepared siRNA reagent ([…]) was added to the appropriate number of wells on a 96-well clear bottom Greiner plate and incubated at room temperature for 30 min.
For plating in 96-well pates, 2000 LU99 cells per well in 100 μL of medium were prepared. The prepared cells (100 μL per well) were added to each well of the 96-well plate and incubated at 48 h.
Compound plates were prepared with a compound starting concentration of 5 mM in a 3-fold dilution. Following 48 h transfection incubation, the appropriate compounds were added to the 96-well plate at a final starting concentration of 5 μM in 3-fold dilution (11 point dose response curve). After addition of the compounds, the 96-well plates were incubated at 37° C. for 120 h. After this time, Cell Titer Glo reagent is reconstituted and 100 μL of reagent was added per well. The plates were tapped gently and luminescence was read on a Pherastar microplate reader.

pFRS2a [6] = test: Western blot of pFRS2a in LU99 cell lysate (90 hours treatment); format: cell-based; conditions: LU99 cells; 50 nM KRAS G12C inhibitor alone
Text: FGFR1 and downstream activation marker pFRS2a protein levels were examined in indicated cell lines, as well as markers for epithelial-like cells (E-cadherin) and mesenchymal-like cells (Vimentin).

pFRS2a [7] = test: Western blot of pFRS2a in LU99 cells (24 hours treatment, with or without rhFGF); format: cell-based; conditions: 100 nM KRAS G12C inhibitor, with or without rhFGF stimulation
Description: LU99 cells were treated with 100 nM of Compound 2, pemigatinib, Compound 1, or indication combination for 24 hours, and with or without lng/ml recombinant human FGF (rhFGF) before harvesting the lysate.
Cells were seeded in Corning 6-well tissue culture treated plates in RPMI medium with 10% FBS at 6×10^5 cells/well. After 48 hours, cells were or treated with indicated compounds for 24 hours at 37° C., 5% CO2. rhFGF—basic (R&D systems 233-FB) was added at 1 nG/ml for 15 minutes at the end of the experiment as indicated. The cells were washed with PBS and lysed with 1x lysis buffer (Cell Signaling #9803) with protease and phosphatase inhibitors. Twenty-five μg of total protein lysates was subjected to SDS-PAGE and immunoblot analysis using the following Cell Signaling antibodies: pERK (#4370) phospho-FRS2a (#3861) and beta-Actin (#12620).
Cells were seeded in Corning 6-well tissue culture treated plates in RPMI medium with 10% FBS at 6x10^5 cells/well. After 48 hours, cells were or treated with indicated compounds for 24 hours at 37° C., 5% CO2. rhFGF—basic (R&D systems 233-FB) was added at 1 nG/ml for 15 minutes at the end of the experiment as indicated. The cells were washed with PBS and lysed with 1× lysis buffer (Cell Signaling #9803) with protease and phosphatase inhibitors. […]

[8] = in the absence of FGFR1, FGFR2 or FGFR3

C=CC(=O)N1CCN(c2nc(=O)n(-c3c(C)ccnc3C(C)C)c3nc(-c4c(O)cccc4F)c(F)cc23)[C@@H](C)C1 [AMG-510]
TGI (tumor growth inhibition) [1]: 66% | Avg. Bliss Score (H1792): 26.7 | Avg. Bliss Score (Calu-1): 11.2 | % viability, G12C i 111 nM ([2]; G12C i alone (Compound 1 arm)): 83.9% | % viability, G12C i 111 nM ([2]; G12C i alone (Pemi arm)): 90.9% | % viability, G12C i 111 nM ([3]; Average, G12C i alone (Compound 1 arm)): 77.6% | % viability, G12C i 111 nM ([3]; Average, G12C i alone (Pemi arm)): 77.8% | % viability, G12C i 111 nM ([3]; G12C i alone (Compound 1 arm), single experiments): 67.1% and 88% | % viability, G12C i 111 nM ([3]; G12C i alone (Pemi arm), single experiments): 69.6% and 90% and 73.7% | % viability, G12C i 111 nM ([4]; G12C i alone (Compound 1 arm)): 77.5% | % viability, G12C i 111 nM ([4]; G12C i alone (Pemi arm)): 69.6% | % viability, G12C i 111 nM ([5]; G12C i alone (Compound 1 arm)): 63% | % viability, G12C i 111 nM ([5]; G12C i alone (Pemi arm)): 67% | Avg. Bliss Score (SW-1573): 25.9 | Avg. Bliss Score (SW-837): −7.7 | Avg. Bliss Score (H358): 3.7 | Avg. Bliss Score (HCC-44): 4.4 | inhibition of LU99 cell proliferation after siRNA knockdown (LU99 cells; [8]): higher inhibition in proliferation | inhibition of LU99 cell proliferation after siRNA knockdown (LU99 cells; in the absence of FGFR1 or FGFR4): higher inhibition in proliferation | protein level of pFRS2a (pFRS2a [6]): elevated the protein level of pFRS2a

COC/C=C/C(=O)N1CC[C@H](n2nnc3c(N4CC(C)(N(C)C)C4)nc4c(F)c(-c5ccc(F)c6cccnc56)c(C(F)(F)F)cc4c32)C[C@H]1CC#N [Compound 2, 2-((2S,4S)-4-(4-(3-(dimethylamino)-3-methylazetidin-1-yl)-6-fluoro-7-(5-fluoroquinolin-8-yl)-8-(trifluoromethyl)-1H-[1,2,3]triazolo[4,5-c]quinolin-1-yl)-1-((E)-4-methoxybut-2-enoyl)piperidin-2-yl)acetonitrile]
pFRS2a signaling (pFRS2a [7]): elevated | inhibition of LU99 cell proliferation after siRNA knockdown (LU99 cells; all FGFR isoforms knocked down, in particular in the absence of FGFR1 and FGFR2): higher inhibition in proliferation | inhibition of LU99 cell proliferation after siRNA knockdown (LU99 cells; [8]): higher inhibition in proliferation | protein level of pFRS2a (pFRS2a [6]): elevated the protein level of pFRS2a
